This note sets out measurements from ChEMBL document CHEMBL1201862, “PubChem BioAssay data set” (2004).

Each structure is given as a SMILES string.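 Briefly, cells in 96-well plates were exposed to five compound concentrations for 48 h, and endpoints were estimated by linear interpolation. Abbreviation: GI50, concentration required for 50% inhibition of growth.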 Calls of active or inactive are those of the source. Rule as the data show it: active = GI50 up to about 1.1 µM and inactive = higher. Some results are limits rather than exact numbers.

Assay in all cases: growth of human tumour cells (NCI), 48 h
Assay [1] has as its system MOLT-4.
The test system of assay [2] is NCI-H460.
In assay [3] the test system is SR.
Assay [4] relates to CCRF-CEM.
In assay [5] the test system is COLO 205.
The subject of assay [6] is T47D.
Assay [7] has as its system SW-620.
Assay [8] concerns A498.
Assay [9] relates to UO-31.
For assay [10], the system named is OVCAR-4.
Assay [11] concerns M14.
The test system of assay [12] is KM12.
The test system of assay [13] is HL-60.
The test system of assay [14] is RXF 393.
Assay [15] has as its system NCI/ADR-RES.
The test system of assay [16] is TK-10.
Assay [17] relates to BT-549.
The test system of assay [18] is MCF7.
Assay [19] deals with OVCAR-8.

On to `Nn1c(S)nnc1C12CC3CC(CC(C3)C1)C2`, for which the GI50 in [1], in [2], in assay [3], in [4], in assay [5] and in assay [6] was > 100 µM (inactive) in each case. Also, the GI50 in [7], in assay [8], in assay [9], in assay [10], in [11] and in assay [12] was > 100 µM (inactive) throughout. The GI50 in [13], in assay [14], in [15] and in [16] was > 100 µM (inactive) throughout.
In the case of `Fc1ccc(Oc2nc3ccccc3nc2-c2ccccc2)cc1`, the GI50 in assay [1] is > 100 µM (inactive); in assay [2], > 100 µM (inactive); in [3], 44.6 µM (inactive); in assay [17] it was 95.3 µM (inactive); in assay [4] it was > 100 µM (inactive); in assay [5], > 100 µM (inactive). Also, the GI50 is > 100 µM (inactive) in [7]; > 100 µM (inactive) in assay [8]; > 100 µM (inactive) in assay [9]; > 100 µM (inactive) in assay [18]; 36.5 µM (inactive) in [10]; > 100 µM (inactive) in [12]. The GI50 in assay [13] was 13.9 µM (inactive); in assay [14] it was 37.2 µM (inactive); in [16] it was > 100 µM (inactive).
For the molecule `COc1ccc2nc3c([N+](=O)[O-])ccc(NCCCN(C)C)c3c(N)c2c1`, the GI50 in assay [19] is 1.75 µM (inactive); in [1] it was 0.276 µM (active); in assay [2], 1.21 µM (inactive); in [3], 0.721 µM (active); in assay [4] it was 0.245 µM (active); in assay [5], 0.764 µM (active). The GI50 in [6] is 1.92 µM (inactive); in assay [7] it was 0.405 µM (active); in [9], 2.14 µM (inactive); in [18] it was 1.15 µM (inactive); in assay [10], 1.5 µM (inactive); in assay [11], 1.9 µM (inactive). For the same molecule, the GI50 in assay [12] is 1.51 µM (inactive); in [13], 1.61 µM (inactive); in [14], 1.29 µM (inactive); in [15] it was 1.64 µM (inactive); in [16], 1.62 µM (inactive).
On to `O=C(NC(C(F)(F)F)(C(F)(F)F)P(=O)(Cc1ccccc1)Cc1ccccc1)C(C(F)(F)F)C(F)(F)F`, for which the GI50 is 22.3 µM (inactive) in assay [19]; 16.9 µM (inactive) in assay [1]; 27.7 µM (inactive) in assay [2]; 18.7 µM (inactive) in assay [3]; 29.6 µM (inactive) in assay [4]; 18.4 µM (inactive) in [5]. Besides, the GI50 in assay [6] was 34.9 µM (inactive); in assay [7], 44.4 µM (inactive); in [8], 17.3 µM (inactive); in assay [18], 12.2 µM (inactive); in assay [11] it was 18.4 µM (inactive); in assay [12], 19.5 µM (inactive). Moreover, the GI50 in assay [13] was 22.4 µM (inactive); in assay [14], 21 µM (inactive); in assay [15], 17.9 µM (inactive); in assay [16], 21.8 µM (inactive).
With `CS(=O)(=O)OCC1CCCCCCCCCCC12SCCCS2` (configuration not stated), the GI50 in [19], in [1], in assay [2], in assay [3], in assay [4] and in [5] was > 100 µM (inactive) in each case. In addition, the GI50 in assay [6], in [7], in assay [8], in assay [9], in [18] and in assay [10] was > 100 µM (inactive) each time. For the same molecule, the GI50 in assay [11], in assay [12], in assay [13], in assay [14], in [15] and in assay [16] was > 100 µM (inactive) throughout.
As for `Cc1cccc(C(C)C)c1NC(=O)C(=O)C(C(=O)c1ccccc1F)C1OC(=O)c2ccccc21` (configuration not stated), the GI50 is 16.5 µM (inactive) in assay [19]; 4.73 µM (inactive) in assay [1]; 24.6 µM (inactive) in assay [2]; 6.19 µM (inactive) in assay [4]; 21.1 µM (inactive) in [5]; 24.5 µM (inactive) in [7]. The GI50 was 23.7 µM (inactive) in assay [8]; 16.8 µM (inactive) in assay [9]; 21.8 µM (inactive) in assay [10]; 16.8 µM (inactive) in assay [11]; 19.2 µM (inactive) in assay [12]; 11.4 µM (inactive) in assay [14]. Also, in assay [16], the GI50 was 39.6 µM (inactive).
As for `CON(C)C(=O)C(C)N(Cc1ccccc1)Cc1ccccc1` (configuration not stated), the GI50 in assay [19] was > 100 µM (inactive); in assay [1], 26.5 µM (inactive); in assay [2] it was 59 µM (inactive); in [3] it was 69 µM (inactive); in assay [17], 45.6 µM (inactive); in [4], 50.8 µM (inactive). Moreover, the GI50 in assay [7] was > 100 µM (inactive); in [8] it was > 100 µM (inactive); in [9], 38.5 µM (inactive); in assay [18], 58.3 µM (inactive); in [11], 68.7 µM (inactive); in assay [12], > 100 µM (inactive). The GI50 in assay [13] was 46.9 µM (inactive); in assay [14], > 100 µM (inactive); in [15], 45.5 µM (inactive); in assay [16] it was > 100 µM (inactive).
As to `O=Cc1cn(CCCCCCCCCCCCn2cc(C=O)c3ccccc32)c2ccccc12`, the GI50 in assay [19] is > 100 µM (inactive); in assay [1], > 100 µM (inactive); in assay [2], > 10 µM (inactive); in assay [3], 11.7 µM (inactive); in assay [17], > 100 µM (inactive); in assay [4], > 10 µM (inactive). Also, the GI50 in assay [5] was > 100 µM (inactive); in [7] it was > 100 µM (inactive); in assay [8], 61 µM (inactive); in [9] it was > 100 µM (inactive); in [18], 2.62 µM (inactive); in assay [11] it was > 100 µM (inactive). For the same molecule, the GI50 in [13] is 1.56 µM (inactive); in assay [14], > 100 µM (inactive); in assay [15] it was 1.46 µM (inactive); in assay [16] it was > 100 µM (inactive).
Regarding `O=c1[nH]nc(NCCc2ccccc2)c2nnn(Cc3ccccc3)c12`, the GI50 in assay [19], in assay [1], in assay [2], in assay [3], in assay [17] and in assay [4] was > 100 µM (inactive) throughout. In addition, the GI50 in assay [5], in [9], in assay [18], in assay [10], in assay [11] and in [12] was > 100 µM (inactive) each time. The GI50 in assay [13], in [14], in assay [15] and in [16] was > 100 µM (inactive) throughout.
Take `Cc1ccc(C)n1-c1ccccc1C1C=CN(C(=O)OC(C)(C)C)C=C1`: the GI50 is 32.7 µM (inactive) in [19]; 21.7 µM (inactive) in assay [1]; 28.2 µM (inactive) in [2]; 32.7 µM (inactive) in [17]; 35.3 µM (inactive) in [4]; 17.2 µM (inactive) in [5]. Also, the GI50 is 19.2 µM (inactive) in assay [7]; 50.5 µM (inactive) in assay [8]; 33.1 µM (inactive) in assay [9]; 17.4 µM (inactive) in assay [18]; 71.4 µM (inactive) in assay [10]; 28.8 µM (inactive) in assay [11]. The GI50 is 14.9 µM (inactive) in assay [12]; 32.7 µM (inactive) in assay [13]; 19.6 µM (inactive) in assay [14]; 27.6 µM (inactive) in assay [15]; 67.3 µM (inactive) in assay [16].
Regarding `COc1ccc(Nc2nc3ccc(C(F)(F)F)cc3nc2-c2ccccc2)cc1OC`, the GI50 is 58.6 µM (inactive) in assay [19]; 22 µM (inactive) in [1]; 16.4 µM (inactive) in assay [2]; 21.4 µM (inactive) in [3]; 25.1 µM (inactive) in [4]; 27.9 µM (inactive) in [5]. In addition, the GI50 in assay [7] is 68.4 µM (inactive); in assay [8], 21.3 µM (inactive); in assay [9], 15.5 µM (inactive); in assay [10] it was > 100 µM (inactive); in assay [11], 55.5 µM (inactive); in assay [12], 21.5 µM (inactive). In addition, the values for the GI50 in assay [13], in [14] and in assay [16] were 36.1 µM (inactive), 23 µM (inactive) and > 10 µM (inactive), respectively.
`CC12CC(=O)C3C(C(=O)C1)C32C` (configuration not stated): the GI50 in assay [19], in assay [1], in assay [2], in [3], in [17] and in assay [4] was > 100 µM (inactive) in each case. Besides, the GI50 in [5], in assay [7], in [8], in assay [9], in assay [18] and in assay [10] was > 100 µM (inactive) throughout. For the same molecule, the GI50 in assay [11] is > 100 µM (inactive); in assay [12], 0.488 µM (active); in assay [14], > 100 µM (inactive); in assay [15], > 100 µM (inactive); in assay [16], > 100 µM (inactive).
